Measurements reported in PubChem BioAssay (NCI).
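A five-concentration, 48-hour dose response in 96-well plates underlies each endpoint, interpolated linearly between surrounding concentrations. TGI is the concentration that stops growth completely.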

Experiments:
Test in all cases: NCI tumour cell line growth inhibition, 48 h
786-0 renal = tested on: 786-0 renal
HL-60(TB) leukemia = tested on: HL-60(TB) leukemia
HS 578T breast = tested on: HS 578T breast
DU-145 prostate = tested on: DU-145 prostate
RPMI-8226 leukemia = tested on: RPMI-8226 leukemia
SNB-75 CNS = tested on: SNB-75 CNS
OVCAR-5 ovarian = tested on: OVCAR-5 ovarian
NCI-H226 lung = tested on: NCI-H226 lung
MCF7 breast = tested on: MCF7 breast
HOP-92 NSCLC = tested on: HOP-92 NSCLC
LOX IMVI melanoma = tested on: LOX IMVI melanoma
K-562 leukemia = tested on: K-562 leukemia
SR leukemia = tested on: SR leukemia
MDA-MB-435 = tested on: MDA-MB-435
UACC-62 melanoma = tested on: UACC-62 melanoma
COLO 205 colon = tested on: COLO 205 colon
UO-31 renal = tested on: UO-31 renal
RXF 393 renal = tested on: RXF 393 renal
SF-268 CNS = tested on: SF-268 CNS
OVCAR-8 ovarian = tested on: OVCAR-8 ovarian
ACHN renal = tested on: ACHN renal
SN12C renal = tested on: SN12C renal
NCI/ADR-RES ovarian = tested on: NCI/ADR-RES ovarian
SW-620 colon = tested on: SW-620 colon
M14 melanoma = tested on: M14 melanoma
TK-10 renal = tested on: TK-10 renal
UACC-257 melanoma = tested on: UACC-257 melanoma
SF-295 CNS = tested on: SF-295 CNS
SF-539 CNS = tested on: SF-539 CNS
OVCAR-4 ovarian = tested on: OVCAR-4 ovarian
HOP-62 NSCLC = tested on: HOP-62 NSCLC
CCRF-CEM leukemia = tested on: CCRF-CEM leukemia
KM12 colon = tested on: KM12 colon
NCI-H23 lung = tested on: NCI-H23 lung
HT29 colon = tested on: HT29 colon
MOLT-4 leukemia = tested on: MOLT-4 leukemia
MALME-3M melanoma = tested on: MALME-3M melanoma
T-47D breast = tested on: T-47D breast
A549 NSCLC = tested on: A549 NSCLC
OVCAR-3 ovarian = tested on: OVCAR-3 ovarian
HCC-2998 colon = tested on: HCC-2998 colon
MDA-N = tested on: MDA-N
PC-3 prostate = tested on: PC-3 prostate
SK-MEL-5 melanoma = tested on: SK-MEL-5 melanoma
SK-MEL-28 melanoma = tested on: SK-MEL-28 melanoma
EKVX NSCLC = tested on: EKVX NSCLC
NCI-H460 lung = tested on: NCI-H460 lung
NCI-H522 lung = tested on: NCI-H522 lung
IGROV1 ovarian = tested on: IGROV1 ovarian
HCT-116 colon = tested on: HCT-116 colon
CAKI-1 renal = tested on: CAKI-1 renal
SK-OV-3 ovarian = tested on: SK-OV-3 ovarian
SNB-19 CNS = tested on: SNB-19 CNS
MDA-MB-231 breast = tested on: MDA-MB-231 breast
HCT-15 colon = tested on: HCT-15 colon
U251 CNS = tested on: U251 CNS
A498 renal = tested on: A498 renal
BT-549 breast = tested on: BT-549 breast
SK-MEL-2 melanoma = tested on: SK-MEL-2 melanoma

Measured: TGI

C/C(=C\CNc1ncnc2c1ncn2CCC#N)CO
not listed: HCT-15 colon | U251 CNS | A498 renal | BT-549 breast | SK-MEL-2 melanoma
> 100 µM: all other assays above

COc1ccc(-c2cc(=O)c3cc(OC)c(OC)cc3[nH]2)cc1OC
not listed: HL-60(TB) leukemia | T-47D breast | SK-MEL-2 melanoma
> 100 µM: all other assays above

O=C(Cn1c(-c2ccccc2)cc2ccccc21)N1CCOCC1
not listed: SNB-75 CNS | SR leukemia | BT-549 breast
> 100 µM: all other assays above

CCOC(=O)N/N=C(/N)Cc1ccc(Cl)cc1
not listed: HL-60(TB) leukemia | HS 578T breast | NCI-H226 lung | SR leukemia | MALME-3M melanoma | T-47D breast | NCI-H460 lung | CAKI-1 renal | A498 renal
> 100 µM: all other assays above
